Data: patent US6166085A, “Method of producing analgesia” (priority 1996, dated 2000)
Where two headings read alike, the source gives them in different places.

Tests used:
[1] = tested on: mechanical allodynia; assay: Mechanical allodynia in rat model of peripheral neuropathy (L5/L6 spinal nerve ligation), intrathecal, Example 2; format: in vivo, Sprague-Dawley rats; conditions: for effect on mechanical allodynia (50% response threshold), 0.6 μmol: 0.6 μmol intrathecal
Experimental: Experiments carried out in support of the present invention were performed in a rat model of peripheral neuropathy detailed in Example 2. Briefly, in the model used, rats are subjected to a surgical procedure, described by Kim and Chung (1992), designed to reproducibly injure peripheral nerves (spinal nerves L5 and L6). These rats develop a hyperesthetic state, which can be measured using one or more paradigms known in the art. Here, allodynia was measured by stimulation of neuropathic rat hindlimb using wire hairs having graded degrees of stiffness.
[…]. Test solutions at pH 6.58 were administered intrathecally as described above. Mechanical allodynia was measured by pressing nylon filaments of varying diameters against the paw. Data are expressed in terms of 50% response threshold, which is the median buckling weight required to evoke paw withdrawal; the lower the stimulus level, the more severe the allodynia.
Male Sprague-Dawley rats (200-350 gm) were prepared with chronic lumbar intrathecal catheters inserted under halothane anesthesia (Yaksh and Rudy). Animals were placed in a prone position and the left paraspinal muscles were separated from the spinous processes at the L4 -S2 levels, as described by Kim et al. The left L5 and L6 nerve roots were exposed and tightly ligated with 6-0 surgical silk suture. The rats were allowed to recover from anesthesia. Allodynia was typically observed to occur beginning 1-2 days post surgery and continuing for as long as 45 days. For testing, animals were placed in plastic cubicles with open wire mesh bottoms. Compound dissolved in preservative-free saline solution was administered in a volume of 10 μl through the intrathecal catheter, followed by 10 μl saline to flush the catheter line. Animals were tested for allodynia at various time points after drug treatment, as described below.
To assess the threshold of a non-noxious stimulus required to produce a left hind paw withdrawal (allodynia), Von Frey hairs (ranging from 0.4-15 grams), were systematically applied to the surgically treated hind paw. Failure to evoke a response was cause to test the next stiffer hair. Evocation of a brisk withdrawal response was cause to test the next lower stimulus intensity. This paradigm was repeated according to a statistical method (Dixon, 1976) to define the 50% response threshold.
Data in FIG. 6 are expressed in terms of 50% response threshold, which is the median buckling weight required to evoke paw withdrawal; the lower the stimulus level, the more severe the allodynia. Allodynia thresholds, measured 30 minutes after injection, were plotted against dosage. Each point represents a value for a single animal.

[2] = Metabolism of 14C lidocaine after IV administration, HPLC profile; format: in vivo, Harlan Sprague-Dawley and Dark Agouti rats; conditions: 14C lidocaine IV, N=2
[3] = tested on: allodynia; conditions: Chaplan et al. 1995, IV or IT, cited from earlier work
[4] = tested on: allodynia; assay: Susceptibility of rat strains to anti-allodynia effects of lidocaine; format: in vivo, Sprague-Dawley versus Dark Agouti rats; conditions: FIG. 11 legend

SMILES	effect on mechanical allodynia (50% response threshold), 0.3 μmol ([1]; 0.3 μmol intrathecal, pH 6.58)	effect on mechanical allodynia (50% response threshold), 0.6 μmol ([1]; pH 6.58)	time of peak elevation of response (blockade of allodynia) ([1]; intrathecal, single bolus, n=6 animals/treatment) [min]	elevation of threshold response ([1]; intrathecal, varying doses, n=6 animals/treatment)	possible maximum duration of effect of a single bolus injection ([1]; intrathecal, "possibly up to")	duration of effect of a single bolus injection ([1]; intrathecal, lasting in excess of) [h]	glucuronidated 3-OH MEGX in elution profile, DA rats ([2]; Dark Agouti)	glucuronidated 3-OH MEGX in elution profile, SD rats ([2]; Sprague-Dawley)	anti-allodynic effect of lidocaine [3]	anti-allodynic effect of lidocaine ([3]; listed as Lidocaine)	susceptibility to anti-allodynia effects of lidocaine, Dark Agouti rats [4]	susceptibility to anti-allodynia effects of lidocaine, Sprague-Dawley rats [4]
CCNCC(=O)Nc1c(C)ccc(O)c1C [3-hydroxy MEGX, 2-(ethylamino)-N-(3-hydroxy-2,6-dimethylphenyl) acetamide]	significant analgesic effects	significant analgesic effects	30 to 60	resulted in elevation of threshold response	up to 20 hours	> 3						
CCN(CC)CC(=O)Nc1c(C)cccc1C [lidocaine]		did not block mechanical allodynia					absent from the profile of DA rats	a large peak in the elution profile of SD rats, found to consist of a glucuronidated form of 3-OH MEGX	no anti-allodynic effect after termination of motor block	effective against allodynia by the intravenous, but not the intrathecal/regional routes	not similarly susceptible	susceptible to anti-allodynia effects of Lidocaine
